A short description of the series: Solubility of posaconazole free base. Format: physicochemical. As for the experimental part: The provision of a solid composition comprising posaconazole suitable for preparing a solid dosage form for oral administration has heretofore been hampered by the poor solubility and weak basicity of the posaconazole free-base compound. Posaconazole is soluble at low pH. For example, in the environment of the stomach (approximately pH 1) posaconazole free base has a solubility of approximately 0.8 mg/mL. However, when posaconazole dissolved in the stomach fluids reaches the environment of the intestines (typically less acidic than about pH 6.4) a substantial amount of the dissolved posaconazole precipitates, hindering absorption in the intestines. It has been determined that in environments where the pH is about pH 6.4 or more basic the solubility of posaconazole free base is less than about 1 microgram/mL.

Our source for the solubility values is patent US20150150990A1, “ORAL PHARMACEUTICAL COMPOSITIONS IN A SOLID DISPERSION COMPRISING PREFERABLY POSACONAZOLE AND HPMCAs” (Merck Sharp & Dohme Corp., priority 2008, published 2015).

≈ marks a conversion by molar mass, not a printed value. Where only a bound is given, the exact number is not on record here.

For `CC[C@@H]([C@H](C)O)n1ncn(-c2ccc(N3CCN(c4ccc(OC[C@@H]5CO[C@@](Cn6cncn6)(c6ccc(F)cc6F)C5)cc4)CC3)cc2)c1=O` [posaconazole free base, posaconazole], the solubility (pH 6.4, pH about 6.4 or more basic) is under 1 µg/mL and the solubility (simulated gastric fluid, environment of the stomach, approximately pH 1) was about 800 µg/mL (≈ 1140 µM).

Broadly, the solubility is the concentration that dissolves in the medium under given conditions. The low end stands for a poorly soluble substance, the high end for a readily soluble substance.
